Several values for one entry are separate records, joined by “and”; a condition that tells them apart may be missing. Identical values can stand only once. Counter-ions that a name gives are not always drawn. Like-named read-outs stand apart in the source and are kept apart here.
Tests used:
[1] = system: newborn rabbit kits; conditions: administered intravenously to the dam; cited from earlier work
[2] = system: Caco-2 cells; conditions: background statement on prior art compound; cited from earlier work
[3] = molecular target: murine macrophage iNOS (Mus musculus (Mouse), UniProt P29477); conditions: for Selectivity n/i: ratio of respective Ki values (iNOS/nNOS); for Ki: read-out: Ki iNOS, murine iNOS, Ki calculated from IC50, average of at least two replicates
[4] = molecular target: bovine eNOS (Bos taurus (Bovine), UniProt P29473); assay: Purified NOS enzyme assay (hemoglobin capture), bovine eNOS; format: biochemical; conditions: for Ki: bovine eNOS, Ki calculated from IC50, average of at least two replicates; for Selectivity n/e: ratio of respective Ki values (eNOS/nNOS)
[5] = molecular target: human nNOS (Homo sapiens (Human), UniProt P29475); assay: Purified NOS enzyme assay (hemoglobin capture), human nNOS; format: biochemical
[6] = molecular target: rat nNOS (Rattus norvegicus (Rat), UniProt P29476); assay: Purified NOS enzyme assay (hemoglobin capture), rat nNOS; format: biochemical
[7] = rat nNOS, Ki calculated from IC50, average of at least two replicates, read-out: Ki nNOS

| SMILES | Selectivity n/i [3] | Ki [3] [µM] | Ki [4] [µM] | Selectivity n/e [4] | Ki [6, 7] [µM] | also measured |
| --- | --- | --- | --- | --- | --- | --- |
| Cc1cc(N)nc(C[C@@H]2CNC[C@@H]2NCCNCCc2cccc(F)c2)c1 [Compound 1] | – | – | – | – | – | effect on hypoxic-ischemic brain damage phenotype [1]: reverses a hypoxic-ischemic brain damage phenotype |
| [H]/N=C(/Nc1cccc(CNCCc2cccc(F)c2)c1)c1cccs1 [Compound 3] | – | – | – | – | – | Caco-2 permeability [2]: poor |
| Cl.Cl.Nc1ccc2ccc(CNCCc3cccc(F)c3)cc2n1 [Compound 5, 7-[(3-Fluorophenethylamino)methyl]quinolin-2-amine Dihydrochloride] | 124 | 9.14 | 0.485 | 6.2 | – | selectivity for nNOS over eNOS [4]: approximately 6 fold; Ki ([5]; human nNOS, Ki calculated from IC50, average of at least two replicates): 0.493 µM; Selectivity (Rat/Human) ([5]; ratio of respective Ki values, Ki-human/Ki-rat): 6.7; Ki ([6]; purified nNOS, read-out: inhibition of nNOS): 0.074 µM; Ki ([6]; rat nNOS, Ki calculated from IC50, average of at least two replicates, Dihydrochloride, read-out: Ki nNOS): 0.075 µM and 0.074 µM |
| Cl.Cl.Nc1ccc2ccc(CCNCc3cccc(F)c3)cc2n1 [Compound 6, 7-[2-(3-Fluorobenzylamino)ethyl]quinolin-2-amine Dihydrochloride] | 97 | 24.5 | 7.77 | 30 | 0.254 | – |
| Cl.Cl.Nc1ccc2ccc(CNCCCc3cccc(F)c3)cc2n1 [Compound 9, 7-{2-[3-(3-Fluorophenyl(propylamino)methyl]}quinolin-2-amine Dihydrochloride] | – | 32.3 | 3.69 | – | 0.06 | – |
| Cl.Cl.Nc1ccc2ccc(CNCCCc3cccc(F)c3)cc2n1 [Compound 9] | 538 | – | – | 62 | – | – |
| Nc1ccc2cc(CNCCc3cccc(F)c3)ccc2n1 [Compound 10, 6-[(3-Fluorophenethylamino)methyl]quinolin-2-amine Dihydrochloride] | – | – | – | – | > 5.7 | – |
| Nc1ccc2cc(CCNCc3cccc(F)c3)ccc2n1 [Compound 11, 6-[2-(3-Fluorobenzylamino)ethyl]quinolin-2-amine Dihydrochloride] | – | – | – | – | > 5.7 | – |
| Nc1ccc2cc(CCNCCc3cccc(F)c3)ccc2n1 [Compound 12, 6-[(3-Fluorophenethylamino)ethyl]quinolin-2-amine Dihydrochloride] | – | – | – | – | > 5.7 | – |
| Cl.Cl.Nc1ccc2ccc(CCNCCc3ccc(F)cc3)cc2n1 [Compound 14, 7-[(4-Fluorophenethylamino)ethyl]quinolin-2-amine Dihydrochloride] | 280 | 51.2 | 8.86 | 37 | 0.183 | – |
| Cl.Cl.Nc1ccc2ccc(CCNCCc3ccc(Cl)cc3)cc2n1 [Compound 16, 7-[(4-Chlorophenethylamino)ethyl]quinolin-2-amine Dihydrochloride] | 91 | 19.2 | 9.89 | 47 | 0.212 | – |

From patent US9212144B2, “2-aminoquinoline-based compounds for potent and selective neuronal nitric oxide synthase inhibition” (priority 2014, dated 2015)
